# Patent US20260070945A1, “MACROCYCLIC IMMUNOMODULATORS” (Bristol-Myers Squibb Company, priority 2022, published 2026)
# *1 amine or outer side, *2 acyl side, *3 side chain or, on linkers, in order; H or OH if unused. Where a SMILES comes first, the peptide text is derived from it. Bridges are numbered along the chain shown (N, C = ends). [ ]: non-standard residue; d: D form. The star is where a group is joined. ξ: configuration not given here. Phe(3-CF3) = N[C@@H](Cc1cccc(C(F)(F)F)c1)C(=O)O; Ala(morpholin-4-yl) = N[C@@H](CN1CCOCC1)C(=O)O; Phe(4-COOH) = N[C@@H](Cc1ccc(C(=O)O)cc1)C(=O)O; Bip = N[C@@H](Cc1ccc(-c2ccccc2)cc1)C(=O)O; Phe(3-Me) = Cc1cccc(C[C@H](N)C(=O)O)c1; NH(CH2)12COOH = O=C(O)CCCCCCCCCCCCN*; X2 = CC(C)=C[C@H](N[*:1])C(=O)[*:2]; Val(3-OH) = CC(C)(O)[C@H](N)C(=O)O; hArg = N=C(N)NCCCC[C@H](N)C(=O)O; 4Pal = N[C@@H](Cc1ccncc1)C(=O)O; Aad = N[C@@H](CCCC(=O)O)C(=O)O; Cha = N[C@@H](CC1CCCCC1)C(=O)O; Cit = NC(=O)NCCC[C@H](N)C(=O)O; Gly(cPr) = N[C@H](C(=O)O)C1CC1; Ile(3ξ) = CCC(C)[C@H](N)C(=O)O; Carboxymethyl = O=C(O)C*; NMeA = CN[C@@H](C)C(=O)O; Aun = NCCCCCCCCCCC(=O)O; Dab = NCC[C@H](N)C(=O)O; AEEA = NCCOCCOCC(=O)O; Sar = CNCC(=O)O
# Biological target: T1, PD-1/PD-L1 interaction (PE-labeled human PD-L1-Ig binding to Jurkat cell line over-expressing human PD-1) (Homo sapiens, UniProt Q15116)
# T1 construct: expressed in transfected cells; host or cells: Jurkat
# T1 sequence (Q15116 25-288): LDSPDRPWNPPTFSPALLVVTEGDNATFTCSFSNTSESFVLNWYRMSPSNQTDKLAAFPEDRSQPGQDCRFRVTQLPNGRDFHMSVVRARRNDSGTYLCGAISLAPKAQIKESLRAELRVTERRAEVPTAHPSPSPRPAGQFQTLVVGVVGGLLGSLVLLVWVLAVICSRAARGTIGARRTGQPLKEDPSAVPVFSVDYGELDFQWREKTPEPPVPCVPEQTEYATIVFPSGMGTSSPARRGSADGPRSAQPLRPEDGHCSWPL
# Experiment: Jurkat-PD-1 Cell Binding High-Content Screening Assay (CBA)
# Settings: Jurkat-hPD-1 cells, PE-labeled PD-L1-Ig 20 nM final; read-out: Jurkat HPD1 PDL1 IC50
# Method in brief: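 Read-out: high-content imaging of cell-bound PE fluorescence, with Hoechst 33342 nuclear counterstain after paraformaldehyde fixation. Before labeled ligand (20 nM final, 1 h) was added, compound sat on the cells for 2 h at 37 °C in DMEM/10% FCS.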
row,SMILES,IC50 [nM]
1,CC(C)C[C@H]1NC(=O)[C@H](C)N(C)C(=O)[C@H](Cc2ccc(OCC(=O)O)cc2)NC(=O)[C@H](Cc2ccc(-c3ccccc3)cc2)NC(=O)[C@H](Cc2ccc(OCC(=O)O)cc2)NC(=O)[C@H](Cc2c[nH]c3ccccc23)NC(=O)[C@H](CC(=O)O)NC(=O)[C@H](Cc2ccc(OCC(=O)O)cc2)NC(=O)[C@H]([C@@H](C)O)NC(=O)CSC[C@@H](C(=O)N[C@@H](CCN)C(=O)NCCOCCOCC(=O)NCCCCCCCCCCC(=O)O)NC(=O)[C@H](CC(N)=O)NC(=O)[C@H](C(C)C)NC(=O)[C@H](CC2CCCCC2)NC(=O)[C@H](CCC(=O)O)NC1=O [Example 1401] ({CH2CO}-TY(Carboxymethyl)DWY(Carboxymethyl)[Bip]Y(Carboxymethyl)[NMeA][dL]E[Cha]VNC[Dab][AEEA][Aun]-OH; thioether N-14),63.9
2,COC[C@@H]1NC(=O)CSC[C@@H](C(=O)N[C@@H](CCN)C(=O)NCCCCCCCCCCCCC(=O)O)NC(=O)[C@H](CCC(=O)O)NC(=O)[C@H](C(C)C)NC(=O)[C@H](CC2CCCCC2)NC(=O)[C@H](CCN)NC(=O)[C@@H](CC(C)C)NC(=O)[C@H](C)N(C)C(=O)[C@H](CCCNC(N)=O)NC(=O)[C@H](Cc2ccc(-c3ccccc3)cc2)NC(=O)[C@H](Cc2ccc(C(=O)O)cc2)NC(=O)[C@H](Cc2cccc(C(F)(F)F)c2)NC(=O)[C@H](CC(=O)O)NC(=O)[C@H](Cc2ccc(OCC(=O)O)cc2)NC1=O [Example 1139] ({CH2CO}-S(Me)Y(Carboxymethyl)D[Phe(3-CF3)][Phe(4-COOH)][Bip][Cit][NMeA][dL][Dab][Cha]VEC[Dab]-{NH(CH2)12COOH}; thioether N-14),12.7
3,Cc1cccc(C[C@@H]2NC(=O)[C@H](CC(=O)O)NC(=O)[C@H](Cc3ccc(C(=O)O)cc3)NC(=O)[C@H](Cc3ccncc3)NC(=O)CSC[C@@H](C(=O)N[C@@H](CC(N)=O)C(=O)NCCOCCOCC(=O)NCCCCCCCCCCC(=O)O)NC(=O)[C@H](CCC(=O)O)NC(=O)[C@H](C(C)(C)O)NC(=O)[C@H](CC3CCCCC3)NC(=O)[C@H](CCN)NC(=O)[C@@H](CC(C)C)NC(=O)[C@H](C)N(C)C(=O)[C@H](Cc3ccc(OCC(=O)O)cc3)NC(=O)[C@H](Cc3ccc(-c4ccccc4)cc3)NC(=O)[C@H](Cc3ccc(OCC(=O)O)cc3)NC2=O)c1 [Example 1428] ({CH2CO}-[4Pal][Phe(4-COOH)]D[Phe(3-Me)]Y(Carboxymethyl)[Bip]Y(Carboxymethyl)[NMeA][dL][Dab][Cha][Val(3-OH)]ECN[AEEA][Aun]-OH; thioether N-14),429
4,CC(C)C[C@@H]1NC(=O)[C@H](Cc2c[nH]c3ccccc23)NC(=O)[C@H](CC(=O)O)NC(=O)[C@H](Cc2ccc(OCC(=O)O)cc2)NC(=O)[C@H](CCCCNC(=N)N)NC(=O)CSC[C@@H](C(=O)NCC(=O)N[C@@H](CCN)C(=O)NCCCCCCCCCCC(=O)O)NC(=O)[C@H](CO)NC(=O)[C@H](C(C)C)NC(=O)[C@H](CC2CCCCC2)NC(=O)[C@H](CCN)NC(=O)[C@@H](CC(C)C)NC(=O)[C@H](C)N(C)C(=O)[C@H](C(C)C)NC(=O)[C@H](Cc2ccc(-c3ccccc3)cc2)NC1=O [Example 2120] ({CH2CO}-[hArg]Y(Carboxymethyl)DWL[Bip]V[NMeA][dL][Dab][Cha]VSCG[Dab][Aun]-OH; thioether N-14),17.6
5,CC(C)=C[C@@H]1NC(=O)[C@H](Cc2cccc(C)c2)NC(=O)[C@H](CC(=O)O)NC(=O)[C@H](Cc2ccc(C(=O)O)cc2)NC(=O)[C@H](CCN)NC(=O)CSC[C@@H](C(=O)N[C@@H](CCN)C(=O)NCCCCCCCCCCC(=O)O)NC(=O)[C@H](CO)NC(=O)[C@H](C(C)(C)O)NC(=O)[C@H](CC2CCCCC2)NC(=O)[C@H](CCN)NC(=O)[C@@H](CC(C)C)NC(=O)[C@H](C)N(C)C(=O)[C@H](Cc2ccc(OCC(=O)O)cc2)NC(=O)[C@H](Cc2ccc(-c3ccccc3)cc2)NC1=O [Example 1303] ({CH2CO}-[Dab][Phe(4-COOH)]D[Phe(3-Me)][X2][Bip]Y(Carboxymethyl)[NMeA][dL][Dab][Cha][Val(3-OH)]SC[Dab][Aun]-OH; thioether N-14),26.7
6,Cc1cccc(C[C@@H]2NC(=O)[C@H](CC(=O)O)NC(=O)[C@H](Cc3ccc(C(=O)O)cc3)NC(=O)[C@H](Cc3ccc(OCC(=O)O)cc3)NC(=O)CSC[C@@H](C(=O)N[C@@H](CCN)C(=O)NCCCCCCCCCCC(=O)O)NC(=O)[C@H](CCCC(=O)O)NC(=O)[C@H](C(C)C)NC(=O)[C@H](CC3CCCCC3)NC(=O)[C@H](CCN)NC(=O)[C@@H](CC(C)C)NC(=O)[C@H](C)N(C)C(=O)[C@H](C(C)C)NC(=O)[C@H](Cc3ccc(-c4ccccc4)cc3)NC(=O)[C@H](C(C)C)NC2=O)c1 [Example 2214] ({CH2CO}-Y(Carboxymethyl)[Phe(4-COOH)]D[Phe(3-Me)]V[Bip]V[NMeA][dL][Dab][Cha]V[Aad]C[Dab][Aun]-OH; thioether N-14),16.3
7,CC(=O)NCCCC[C@@H]1NC(=O)[C@H](C(C)C)NC(=O)[C@H](CC2CCCCC2)NC(=O)[C@H](CCN)NC(=O)[C@@H](CC(C)C)NC(=O)[C@H](C)N(C)C(=O)[C@H](Cc2ccc(O)cc2)NC(=O)[C@H](Cc2ccc(-c3ccccc3)cc2)NC(=O)[C@H](C(C)C)NC(=O)[C@H](Cc2cccc(C)c2)NC(=O)[C@H](CC(=O)O)NC(=O)[C@H](Cc2ccc(OCC(=O)O)cc2)NC(=O)[C@H](CCCNC(=N)N)NC(=O)CSC[C@@H](C(=O)N(C)CC(=O)NCCCCCCCCCCC(=O)O)NC1=O [Example 2273] ({CH2CO}-RY(Carboxymethyl)D[Phe(3-Me)]V[Bip]Y[NMeA][dL][Dab][Cha]VK(Ac)C[Sar][Aun]-OH; thioether N-14),321
8,CCC(C)[C@@H]1NC(=O)[C@H](Cc2ccc(-c3ccccc3)cc2)NC(=O)[C@H](CC(C)C)NC(=O)[C@H](Cc2c[nH]c3ccccc23)NC(=O)[C@H](CC(=O)O)NC(=O)[C@H](Cc2ccc(C(=O)O)cc2)NC(=O)[C@H](Cc2ccc(OCC(=O)O)cc2)NC(=O)CSC[C@@H](C(=O)N[C@@H](CCN)C(=O)NCCOCCOCC(=O)NCCCCCCCCCCC(=O)O)NC(=O)[C@H](CO)NC(=O)[C@H](C(C)(C)O)NC(=O)[C@H](CC2CCCCC2)NC(=O)[C@H](CCN)NC(=O)[C@@H](CC(C)C)NC(=O)[C@H](C)N(C)C1=O (stereo partly drawn) [Example 1410] ({CH2CO}-Y(Carboxymethyl)[Phe(4-COOH)]DWL[Bip][Ile(3ξ)][NMeA][dL][Dab][Cha][Val(3-OH)]SC[Dab][AEEA][Aun]-OH; thioether N-14),16.2

# The next compounds have a lower IC50 than those just listed; values first:
row,IC50 [nM],SMILES
1,6.1,CC(C)C[C@H]1NC(=O)[C@H](C)N(C)C(=O)[C@H](CCC(N)=O)NC(=O)[C@H](Cc2ccc(-c3ccccc3)cc2)NC(=O)[C@H](Cc2ccc(C(=O)O)cc2)NC(=O)[C@H](Cc2cccc(C(F)(F)F)c2)NC(=O)[C@H](CC(=O)O)NC(=O)[C@H](Cc2ccc(OCC(=O)O)cc2)NC(=O)[C@H](CN2CCOCC2)NC(=O)CSC[C@@H](C(=O)N[C@@H](CCN)C(=O)NCCCCCCCCCCCCC(=O)O)NC(=O)[C@H](CCC(=O)O)NC(=O)[C@H](C(C)C)NC(=O)[C@H](CC2CCCCC2)NC(=O)[C@H](CCN)NC1=O [Example 1151] ({CH2CO}-[Ala(morpholin-4-yl)]Y(Carboxymethyl)D[Phe(3-CF3)][Phe(4-COOH)][Bip]Q[NMeA][dL][Dab][Cha]VEC[Dab]-{NH(CH2)12COOH}; thioether N-14)
2,10.7,CC(C)C[C@@H]1NC(=O)[C@H](Cc2c[nH]c3ccccc23)NC(=O)[C@H](CC(=O)O)NC(=O)[C@H](Cc2ccc(C(=O)O)cc2)NC(=O)[C@H](Cc2ccc(OCC(=O)O)cc2)NC(=O)CSC[C@@H](C(=O)NCC(=O)N[C@@H](CCCCN)C(=O)NCC(=O)NCCCCCCCCCCC(=O)O)NC(=O)[C@H](CO)NC(=O)[C@H](C(C)C)NC(=O)[C@H](CC2CCCCC2)NC(=O)[C@H](CCN)NC(=O)[C@@H](CC(C)C)NC(=O)[C@H](C)N(C)C(=O)[C@H](C(C)C)NC(=O)[C@H](Cc2ccc(-c3ccccc3)cc2)NC1=O [Example 1031] ({CH2CO}-Y(Carboxymethyl)[Phe(4-COOH)]DWL[Bip]V[NMeA][dL][Dab][Cha]VSCGKG[Aun]-OH; thioether N-14)
3,9.1,CC(C)C[C@@H]1NC(=O)[C@H](Cc2c[nH]c3ccccc23)NC(=O)[C@H](CC(=O)O)NC(=O)[C@H](Cc2ccc(C(=O)O)cc2)NC(=O)[C@H](Cc2ccc(OCC(=O)O)cc2)NC(=O)CSC[C@@H](C(=O)NCCOCCOCC(=O)NCCCCCCCCCCC(=O)O)NC(=O)[C@H](CCCNC(N)=O)NC(=O)[C@H](C(C)(C)O)NC(=O)[C@H](CC2CCCCC2)NC(=O)[C@H](CCN)NC(=O)[C@@H](CC(C)C)NC(=O)[C@H](C)N(C)C(=O)[C@H](C(C)C)NC(=O)[C@H](Cc2ccc(-c3ccccc3)cc2)NC1=O [Example 1111] ({CH2CO}-Y(Carboxymethyl)[Phe(4-COOH)]DWL[Bip]V[NMeA][dL][Dab][Cha][Val(3-OH)][Cit]C[AEEA][Aun]-OH; thioether N-14)
4,3.3,Cc1cccc(C[C@@H]2NC(=O)[C@H](CC(=O)O)NC(=O)[C@H](Cc3ccc(C(=O)O)cc3)NC(=O)[C@H](Cc3ccc(OCC(=O)O)cc3)NC(=O)CSC[C@@H](C(=O)NCCOCCOCC(=O)NCCCCCCCCCCC(=O)O)NC(=O)[C@H](CCCCN)NC(=O)[C@H](C(C)C)NC(=O)[C@H](CC3CCCCC3)NC(=O)[C@H](CCN)NC(=O)[C@@H](CC(C)C)NC(=O)[C@H](C)N(C)C(=O)[C@H](C(C)C)NC(=O)[C@H](Cc3ccc(-c4ccccc4)cc3)NC(=O)[C@H](CC(C)C)NC2=O)c1 [Example 2231] ({CH2CO}-Y(Carboxymethyl)[Phe(4-COOH)]D[Phe(3-Me)]L[Bip]V[NMeA][dL][Dab][Cha]VKC[AEEA][Aun]-OH; thioether N-14)
5,11.2,Cc1cccc(C[C@@H]2NC(=O)[C@H](CC(=O)O)NC(=O)[C@H](Cc3ccc(C(=O)O)cc3)NC(=O)[C@H](CCN)NC(=O)CSC[C@@H](C(=O)N[C@@H](CCN)C(=O)NCCCCCCCCCCC(=O)O)NC(=O)[C@H](CO)NC(=O)[C@H](C(C)(C)O)NC(=O)[C@H](CC3CCCCC3)NC(=O)[C@H](CCN)NC(=O)[C@@H](CC(C)C)NC(=O)[C@H](C)N(C)C(=O)[C@H](Cc3ccc(OCC(=O)O)cc3)NC(=O)[C@H](Cc3ccc(-c4ccccc4)cc3)NC(=O)[C@H](C3CC3)NC2=O)c1 [Example 1295] ({CH2CO}-[Dab][Phe(4-COOH)]D[Phe(3-Me)][Gly(cPr)][Bip]Y(Carboxymethyl)[NMeA][dL][Dab][Cha][Val(3-OH)]SC[Dab][Aun]-OH; thioether N-14)
